Measurements reported in US10219513B2, “Safening 4-amino-3-chloro-6-(4-chloro-2-fluoro-3-methoxyphenyl)-5-fluoropyridine-2-carboxylic acid compositions in Brassica species and methods of use thereof” (Dow AgroSciences LLC, priority 2016, dated 2019).

How the values were obtained:
[1] = tested on: Brassica rapa (turnip or Polish canola, BRSRR); assay: Greenhouse postemergence application, visual injury after 20-22 d, BRSRR; details: for % Visual Injury Obs / Obs % visual injury: BRSRR
Summary of the method: (§1)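 Florpyrauxifen-benzyl alone or mixed with clopyralid, quinclorac or safeners, diluted in 1.25% v/v Agri-dex, was track-sprayed at 187 L/ha onto 2–3-true-leaf plants. Plants were kept in a greenhouse at ~23/22 °C, 14 h photoperiod, sub-irrigated, and injury was scored visually 0–100% vs. solvent-blank controls; Colby expected values were calculated.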

[2] = tested on: Brassica juncea (Juncea canola or brown mustard, BRSJU); assay: Greenhouse postemergence application, visual injury after 20-22 d, BRSJU; details: for % Visual Injury Obs / Obs % visual injury: BRSJU
Summary of the method: as §1

[3] = tested on: Brassica napus (Roundup Ready canola, RR-BRSNN); assay: Greenhouse postemergence application, visual injury after 20-22 d, RR-BRSNN; details: for % Visual Injury Obs / Obs % visual injury: RR-BRSNN
Summary of the method: as §1

[4] = tested on: Brassica napus (all varieties of canola and oilseed rape, BRSNN); assay: Greenhouse postemergence application, visual injury after 20-22 d, BRSNN; details: for % Visual Injury Obs / Obs % visual injury: BRSNN
Summary of the method: as §1

[5] = tested on: Brassica napus (winter oilseed rape, BRSNW); assay: Greenhouse postemergence application, visual injury after 20-22 d, BRSNW; details: for % Visual Injury Obs / Obs % visual injury: BRSNW
Summary of the method: as §1

[6] = postemergence application, greenhouse, application rate (g ai/ha) varies

O=C(O)c1c(Cl)ccc2cc(Cl)cnc12 [Quinclorac, 3,7-dichloro-8-quinolinecarboxylic acid]
0%: % Visual Injury Obs ([1]; 50 g ai/ha) | % Visual Injury Obs ([1]; 100 g ai/ha) | % Visual Injury Obs ([1]; 200 g ai/ha) | Obs % visual injury ([1]; partner alone 50 g ai/ha) | Obs % visual injury ([1]; partner alone 100 g ai/ha) | Obs % visual injury ([1]; partner alone 200 g ai/ha) | % Visual Injury BRSRR Obs [1, 6] | % Visual Injury BRSRR Obs ([1]; quinclorac 50 g ai/ha alone) | % Visual Injury BRSRR Obs ([1]; quinclorac 100 g ai/ha alone) | % Visual Injury BRSRR Obs ([1]; quinclorac 200 g ai/ha alone) | % Visual Injury Obs ([2]; 50 g ai/ha) | % Visual Injury Obs ([2]; 100 g ai/ha) | % Visual Injury Obs ([2]; 200 g ai/ha) | Obs % visual injury ([2]; partner alone 50 g ai/ha) | Obs % visual injury ([2]; partner alone 100 g ai/ha) | Obs % visual injury ([2]; partner alone 200 g ai/ha) | % Visual Injury BRSJU Obs [2, 6] | % Visual Injury BRSJU Obs ([2]; quinclorac 50 g ai/ha alone) | % Visual Injury BRSJU Obs ([2]; quinclorac 100 g ai/ha alone) | % Visual Injury BRSJU Obs ([2]; quinclorac 200 g ai/ha alone) | % Visual Injury Obs ([3]; 50 g ai/ha) | % Visual Injury Obs ([3]; 100 g ai/ha) | % Visual Injury Obs ([3]; 200 g ai/ha) | Obs % visual injury ([3]; partner alone 50 g ai/ha) | Obs % visual injury ([3]; partner alone 100 g ai/ha) | Obs % visual injury ([3]; partner alone 200 g ai/ha) | % Visual Injury RR-BRSNN Obs [3, 6] | % Visual Injury RR-BRSNN Obs ([3]; quinclorac 50 g ai/ha alone) | % Visual Injury RR-BRSNN Obs ([3]; quinclorac 100 g ai/ha alone) | % Visual Injury RR-BRSNN Obs ([3]; quinclorac 200 g ai/ha alone) | % Visual Injury Obs ([4]; 50 g ai/ha) | % Visual Injury Obs ([4]; 100 g ai/ha) | % Visual Injury Obs ([4]; 200 g ai/ha) | Obs % visual injury ([4]; partner alone 50 g ai/ha) | Obs % visual injury ([4]; partner alone 100 g ai/ha) | Obs % visual injury ([4]; partner alone 200 g ai/ha) | % Visual Injury BRSNN Obs [4, 6] | % Visual Injury BRSNN Obs ([4]; quinclorac 50 g ai/ha alone) | % Visual Injury BRSNN Obs ([4]; quinclorac 100 g ai/ha alone) | % Visual Injury BRSNN Obs ([4]; quinclorac 200 g ai/ha alone) | % Visual Injury Obs ([5]; 50 g ai/ha) | % Visual Injury Obs ([5]; 100 g ai/ha) | % Visual Injury Obs ([5]; 200 g ai/ha) | Obs % visual injury ([5]; partner alone 50 g ai/ha) | Obs % visual injury ([5]; partner alone 100 g ai/ha) | Obs % visual injury ([5]; partner alone 200 g ai/ha) | % Visual Injury BRSNW Obs [5, 6] | % Visual Injury BRSNW Obs ([5]; quinclorac 50 g ai/ha alone) | % Visual Injury BRSNW Obs ([5]; quinclorac 100 g ai/ha alone) | % Visual Injury BRSNW Obs ([5]; quinclorac 200 g ai/ha alone)
